Patent US20130216631A1, “TARGETED PERFORMANCE OF HYPOHALITE COMPOSITIONS THEREOF” (The Clorox Company, priority 2012, published 2013)

Assay: Percentage of initial hypochlorite remaining over time after mixing oxidant and reductant
Type: physicochemical
Conditions: any pH below 12
Description: The amount of available halogen oxidant in the composition may be determined by placing samples of the composition into about 50 milliliters of distilled water, followed by addition of about 10 milliliters of a 10 wt % solution of potassium iodide and addition of about 10 milliliters of a 10 volume % solution of sulfuric acid, the resulting mixture being well stirred. The resulting yellow to brown solution, whose color is the result of oxidation of […] (I^−) to molecular iodine (I2), is then volumetrically titrated to an essentially colorless endpoint by addition of standardized 0.1 Molar sodium thiosulfate (Na2S2O3) titrant. […] Stability results are then expressed by repeated assays over time using identically prepared samples resulting from the same composition, normalized to 100 percent representative of the starting available chlorine measured initially.
Alternatively, at lower concentrations of hypochlorite, generally below about 2,000 ppm or 0.2 wt %, spectroscopic measurement of the absorption of aqueous solutions may be used to monitor the concentration, and resulting changes, of the hypochlorous acid species in solution. […] By use of controls, the relative level of hypochlorite can then be monitored and calculated by measuring absorbance of solutions by means of a suitable instrument, such as a spectrophotometer. […]

Q: For `O=C(O)CN(CCN(CC(=O)O)CC(=O)O)CC(=O)O` [EDTA, ethylene diamine tetra-acetic acid], which “reaction of reductant with hypochlorite (quench rate)” value is on record?
A: Its value is “reacts almost instantly”.
